According to PMC4326489, “Efficacy and pharmacokinetic evaluation of a novel anti-malarial compound (NP046) in a mouse model” (Malaria Journal, 2015):

Legend:
[1] = Plasma protein binding by ultracentrifugation; assay type: in vitro ADME; settings: read-out: PPB (plasma protein binding) (converted)
Protocol: In this study, since the NSB > 5%, ultracentrifugation was used to assess the PPB property of NP046 [for the methodology see Additional file 3]. […] Procedure for the determination of PPB by Ultracentrifugation (procedure was adopted from Barré et al., 1985; with a slight modification). Thaw plasma aliquots in a water bath at 22 °C. Centrifuge plasma aliquots at 2000 g for 5 minutes, and decant and pool the supernatant. Prepare plasma and PBS samples at a high concentration (1000 ng/ml), and low concentration (10 ng/ml) for all the test compounds under investigation. The PBS samples were used to determine the response of the unbound (or free) drug, and were not subjected to ultracentrifugation. Plasma samples were incubated at 37 °C in a water bath for 20minutes to allow samples to reach physiological temperature, and then the samples were aliquoted into BECKMAN Quick-Seal centrifuge tubes (13 ml). Ultracentrifuge plasma samples at 2 x 10^5 g for 6 hours at 37 °C using BECKMAN L8-[…] ultracentrifuge (80Ti). The supernatant was extracted, and its response was compared with that of the PBS extract after being analysed by the validated LC-MS/MS bioanalytical drug assay methods stated in chapters 8 and 9. PPB% was calculated using the equation: Where T = total drug concentration; and F = free drug concentration.

[2] = Non-specific binding to the micro-partition device (ultrafiltration); assay type: in vitro ADME; settings: PBS pH 7.4
Protocol: PPB (plasma protein binding), the extent to which a drug binds to protein in plasma, can affect the PK-PD properties of a drug. Thus, determining the PPB property of a drug in the early stage of drug development process is crucial and a prerequisite for lead prioritization. Initially the PPB assay was performed using an ultrafiltration method [see Additional file 3], which depends on centrifugal force to move the unbound analyte of interest through a size-selective membrane. Ultrafiltration is recommended for the determination of PPB property if the non-specific binding (NSB) of the test drug to the micro-partition device is less than 5%. If NSB > 5%, an alternative technique such as equilibrium dialysis or ultracentrifugation should be used.
Procedure for the determination of nonspecific binding by Ultrafiltration (procedure was adopted from Dow, 2002; with a slight modification).
0.01 M PBS, pH 7.4, was prepared by dissolving 4 g of NaCl, 0.1 g of KCl, 0.722 g of Na2HPO4, and 0.12 g of KH2PO4 with water to a final volume of 500 ml.
Primary stock solutions of TK900D, TK900E, and NP046 at 100 µg/ml; and secondary stock solutions at 1 µg/ml in methanol were prepared. […]
The ultrafiltrate were extracted and analysed quantitatively using the validated LC-MS/MS bioanalytical drug assay methods specified in Chapters 8 and 9.
The %NSB were calculated using the equation: […]

Caco-2 cell line = assay: Caco-2 permeability, apical to basolateral drug transport assay; assay type: in vitro ADME, human; settings: transport buffer pH 7.4, LC-MS/MS, experiment repeated with same result
Description: Permeability is the speed/velocity and extent to which a drug passes through a biological membrane obstacle in a living system, such as the gastrointestinal (GI) epithelial cells, the blood capillary wall, the target cell membrane. The Caco-2 cell line (a continuous line of heterogeneous human epithelial colorectal adenocarcinoma cells), the most widely used and recognized as a model of the intestinal barrier was used to determine the in vitro permeability of NP046 [for the methodology see Additional file 6]. The transport of each drug from the apical side to the basolateral side was done using a transport buffer that consisted of Hank’s Balanced Salt Solution (HBSS) + 10 mM HEPES + […] NaHCO3, pH 7.4 (1:100 1 M HEPES in HBSS). The drug transport assay was performed by determining the concentrations of the test compound from the basolateral chamber, using an LC-MS/MS assay. […] Therefore, the experiment was repeated and the same result was obtained. This could be due to the following reasons: IVc. Drug transport assay: The monolayer was rinsed with HBSS Test compounds (200 µl) was added into the apical chambers of the monolayers inserted in a plate containing 600 µl HBSS The plate was placed in a water bath with orbital shaker (60 rpm) for 2 hours at 37 °C Fifty micro litters of the solution were removed from the apical and basolateral wells and analysed using LC-MS method.

[3] = Lipophilicity, Log D by scaled-down shake-flask method (octanol/PBS); assay type: physicochemical; settings: pH 7.4, read-out: Log D7.4
Protocol: Lipophilicity is a compound’s tendency to partition into a non-polar lipid matrix versus an aqueous matrix. It is an important property of a drug which has a significant influence on the drug ADME/tox properties as well as its biological activity. […].
Stock solutions of NP046 and controls in DMSO (10 mM) were prepared and an aliquot of each phase (octanol/PBS) was analysed by an HPLC-Diode array detector (DAD) method. Chromatographic separation was achieved on a Phenomenex® Kinetex C18 (50 × 2.1 mm i.d. 2.6 μm) column with a gradient elution, using mobile phase (A) 5 mM ammonium format-acetonitrile (95:5, v/v) and (B) 5 mM ammonium format-acetonitrile (5:95, v/v). The Log D values were calculated using the analyte peak areas obtained from each phase (Octanol/PBS) according to the following equation [12]: [drawing 2]

[4] = Stability in whole blood (long term, freeze and thaw, on bench); assay type: in vitro ADME, human; settings: for Long term stability, mean concentration found: -80°C, 92 days; for On bench stability, mean concentration found: on bench 3.3 hours
Protocol: Owing to the scarcity of mouse blood, the assay was developed and validated using human whole blood and then cross validated with mice whole blood to ensure that the same results were obtained in the same matrix of both species. NP046 was stable for 100 days in stock solutions of methanol and acetonitrile when stored at room temperature and -20 °C. It was stable in whole blood on bench for 3.3 hours while waiting for extraction, and was stable after three freeze-thaw cycles too.

[5] = whole blood, nominal High (799.9)
[6] = whole blood, nominal Low (4.999)

Oc1cc(CCCc2ccc(F)cc2)ccc1CN1CCCCC1 [NP046, 5-(3-(4-fluorophenyl)propyl)-2-(piperidin-1-ylmethyl)phenol]
fraction unbound at 6 h, 10 ng/ml ([1]; at 10 ng/ml): 0.797
fraction unbound at 6 h, 1000 ng/ml ([1]; at 1000 ng/ml): 0.72
NSB (non-specific binding to the micro-partition device) [2]: > 5%
test compound found in the basolateral chamber (apical to basolateral transport) (Caco-2 cell line): no quantifiable amount
logD [3]: 2.6
stability in whole blood on bench ([4]; 3.3 hours while waiting for extraction): stable
long term matrix stability ([4]; whole blood at -80°C for 92 days): stable
Long term stability, mean concentration found [4, 5]: 732. ng/ml
Long term stability, mean concentration found [4, 6]: 5.081 ng/mL
On bench stability, mean concentration found [4, 5]: 716.9 ng/mL
On bench stability, mean concentration found [4, 6]: 5.370 ng/mL
stability after freeze-thaw cycles ([4]; whole blood, three freeze-thaw cycles): stable
Freeze and thaw stability, mean concentration found ([4]; whole blood, three freeze-thaw cycles, nominal High (799.9)): 718.6 ng/mL
Freeze and thaw stability, mean concentration found ([4]; whole blood, three freeze-thaw cycles, nominal Low (4.999)): 5.037 ng/mL
